Source: ChEMBL document CHEMBL5537177, “Discovery of Potent Antimalarial Type II Kinase Inhibitors with Selectivity over Human Kinases” (J Med Chem, 2024)
pEC50: −log10 of the molar value. Calls of active or inactive are those of the source. The rule behind the calls is not given here.

Tests used:
Plasmodium falciparum [1] = test: (§1) Antimalarial activity against artemisinin/piperaquine-resistant synchronized early ring stage Plasmodium falciparum IPC 6261 (MRA-1284) clinical isolate assessed as decrease in parasite survival at ring stage at 10 times EC50 treated for 6 to 48 hrs followed by compound removal measured after 72 hrs by geimsa staining based microscopy; type: functional, organism-based
Plasmodium berghei [2] = test: Antimalarial activity against […] Plasmodium berghei sporozoites expressing GFP-Luc SMcon infected in Swiss Webster mouse assessed as reduction in parasitemia at 15 mg/kg, iv pretreated for 6 hrs followed by parasite infection measured after 2 to 6 days post-infection by IVIS imaging analysis; type: functional, organism-based; details: time 2.25-6.25 day
Plasmodium falciparum [3] = test: Resistance development in blood-stage Plasmodium falciparum Dd2-B2 assessed as drug irresistibility at 1 to 2 times EC50 measured till death; type: functional, organism-based
Plasmodium falciparum [4] = test: Antimalarial activity against synchronized early ring stage Plasmodium falciparum 3D7 (MRA-152) clinical isolate assessed as decrease in parasite survival at ring stage at 10 times EC50 treated for 6 hrs followed by compound removal measured after 72 hrs by geimsa staining based microscopy; type: functional, organism-based
Plasmodium falciparum [5] = test: Antiplasmodial activity against multidrug-resistant Plasmodium falciparum Dd2 at ring stage infected in A+ erythrocytes assessed as parasite growth reduction incubated for 72 hrs by SYBR Green I dye based analysis; type: functional, organism-based; details: Dd2, Erythrocyte
Plasmodium falciparum [6] = test: microbe, parasite or virus in culture; details: Dd2, 72 h
Description: Antiplasmodial activity against asynchronous Plasmodium falciparum Dd2 assessed as parasite growth reduction incubated for 72 hrs by SYBR Green I dye based analysis

Plasmodium falciparum [7] = test: Resistance index, ratio of EC50 for multidrug-resistant Plasmodium falciparum Dd2 at ring stage infected in A+ erythrocytes to EC50 for drug-sensitive Plasmodium falciparum 3D7 at ring stage infected in A+ erythrocytes; type: organism-based; details: human
Plasmodium falciparum [8] = test: Antimalarial activity against synchronized Plasmodium falciparum Dd2 at 5 times EC50 treated 42 hrs post-invasion measured after 54 hrs post-invasion by YOYO-1 staining based flow cytometry; type: functional, organism-based; details: time 12.0 hrs
Plasmodium berghei [9] = test: (§2) Antimalarial activity against blood-stage Plasmodium berghei sporozoites expressing GFP-Luc SMcon infected in Swiss Webster mouse assessed as reduction in parasitemia at 15 mg/kg, iv pre-infected with mouse RBC containing Plasmodium berghei sporozoites followed by compound administration measured for 2 to 16 days post-infection by SYBR Green I dye based flow cytometry; type: functional, organism-based; details: Erythrocyte, time 2-16 day
Plasmodium falciparum [10] = test: as §1, with “artemisinin-resistant/piperaquine-sensitive” for “artemisinin/piperaquine-resistant”, “5202 (MRA-1240)” for “6261 (MRA-1284)”; type: functional, organism-based
[11] = Selectivity index, ratio of EC50 for human HepG2 cells to EC50 for multidrug-resistant Plasmodium falciparum Dd2 at ring stage infected in A+ erythrocytes; type: toxicity, cell-based; details: read-out: Ratio EC50
[12] = Cmax in mouse at 10 mg/kg, po; type: ADME, organism-based; details: in vivo
[13] = AUC (last) in mouse at 2 mg/kg, iv; type: ADME, organism-based; details: in vivo
Plasmodium falciparum [14] = test: Antimalarial activity against patient-derived ring-stage Plasmodium falciparum clinical isolate from Busiu town of Uganda infected in O+ RBCs assessed as reduction in parasitemia incubated for 72 hrs by SYBR green I dye based analysis; type: functional, organism-based, RBC; details: Erythrocyte
Plasmodium falciparum [15] = test: Antimalarial activity against synchronized Plasmodium falciparum Dd2 assessed as delay in rightward shift of YOYO-1 peak at 5 times EC50 treated 18 to 30 hrs post-invasion measured after 54 hrs post-invasion by flow cytometry; type: functional, organism-based; details: time 24-36 hrs
[16] = Selectivity index, ratio of EC50 for human MCF7 cells to EC50 for multidrug-resistant Plasmodium falciparum Dd2 at ring stage infected in A+ erythrocytes; type: toxicity, cell-based; details: read-out: Ratio EC50
[17] = Half life in mouse at 2 mg/kg, iv; type: ADME, organism-based; details: in vivo
Plasmodium falciparum [18] = test: microbe, parasite or virus in culture; details: Dd2, 72 h; remark: listed apart in the source
Description: Antimalarial activity against wild-type Plasmodium falciparum Dd2 assessed as reduction in parasitemia incubated for 72 hrs by SYBR green I dye based analysis

Plasmodium falciparum [19] = test: Parasiticidal activity against asynchronous blood-stage Plasmodium falciparum Dd2 at 10 times EC50 treated for 12 hrs followed by compound washout and measured for 4 days by flow cytometry; type: functional, organism-based
Plasmodium falciparum [20] = test: as §1, with “6” for “6 to 48”; type: functional, organism-based
Plasmodium falciparum [21] = test: Antimalarial activity against synchronized Plasmodium falciparum Dd2 assessed as aberrant morphology of parasites at 5 times EC50 treated 42 hrs post-invasion measured after 54 hrs post-invasion by Geimsa staining based microscopy; type: functional, organism-based; details: time 12.0 hrs
Plasmodium falciparum [22] = test: Antimalarial activity against synchronized Plasmodium falciparum Dd2 assessed as parasite growth inhibition at ring stage at 5 times EC50 treated 6 hrs post-invasion measured after 54 hrs post-invasion by Geimsa staining based microscopy; type: functional, organism-based; details: time 48.0 hrs
Plasmodium berghei [23] = test: as §2, with “15 to 50” for “15”, “pretreated for 6 hrs” for “pre-infected with mouse RBC containing Plasmodium berghei sporozoites”, “parasite infection” for “compound administration”; type: functional, organism-based; details: dose 15-50 mg/kg, time 2.25-16.25 day
Plasmodium falciparum [24] = test: Antimalarial activity against synchronized Plasmodium falciparum Dd2 assessed as malformation of parasites at 5 times EC50 treated 18 to 30 hrs post-invasion measured after 54 hrs post-invasion by Geimsa staining based microscopy; type: functional, organism-based; details: time 24-36 hrs
Plasmodium falciparum [25] = test: Antimalarial activity against patient-derived ring-stage Plasmodium falciparum clinical isolate from Tororo town of Uganda infected in O+ RBCs assessed as reduction in parasitemia incubated for 72 hrs by SYBR green I dye based analysis; type: functional, organism-based, RBC; details: Erythrocyte
[26] = Metabolic stability in mouse liver microsomes assessed as half life; type: ADME, Liver cells
Plasmodium falciparum [27] = test: as §1, with “artemisinin-resistant” for “artemisinin/piperaquine-resistant”, “5202 (MRA-1240)” for “6261 (MRA-1284)”, “for” for “for 6 to”; type: functional, organism-based
[28] = Clearance in mouse at 2 mg/kg, iv; type: ADME, organism-based; details: in vivo

## CCN1CCN(Cc2ccc(NC(=O)c3cc(Cl)cc(NC(=O)c4cncc(-c5cccs5)c4)c3)cc2C(F)(F)F)CC1
Plasmodium falciparum [1]
  pEC50: 6.97
Plasmodium berghei [2]
  Activity: Active
Plasmodium falciparum [3]
  Activity: Active
Plasmodium falciparum [4]
  Activity: inactive
Plasmodium falciparum [5]
  pEC50: 7.24
Plasmodium falciparum [6]
  pEC50: 7.10
Plasmodium falciparum [7]
  Ratio EC50: 1.4
Plasmodium falciparum [8]
  Activity: Active
Plasmodium berghei [9]
  Activity: Active
Plasmodium falciparum [10]
  pEC50: 7.14
[11]
  selectivity ratio: 45
[12]
  Cmax: 153 ng/mL
[13]
  AUC(0-t): 6860 ng·h/mL
Plasmodium falciparum [14]
  pEC50: 8.04
Plasmodium falciparum [15]
  Activity: Active
[16]
  selectivity ratio: 61
[17]
  half-life: 4.16 h
Plasmodium falciparum [18]
  pEC50: 7.29
Plasmodium falciparum [19]
  Activity: Active
Plasmodium falciparum [20]
  Activity: inactive
Plasmodium falciparum [21]
  Activity: Active
Plasmodium falciparum [22]
  inhibition: Active
Plasmodium berghei [23]
  Activity: Active
Plasmodium falciparum [24]
  Activity: Active
Plasmodium falciparum [25]
  pEC50: 8.04
[26]
  t1/2: 1.32 h
Plasmodium falciparum [27]
  Activity: Active
[28]
  clearance: 4.3 mL/min/kg
